Test results as given in patent US5232922A, “Imidazole compounds, processes for their preparation, pharmaceuticals based on these compounds and some intermediates” (priority 1990, dated 1993).
Where a name gives a salt, the structure may show the parent alone. Read-outs that look alike come from different tables or passages of the source.

Legend:
[1] = test system: skeletal muscle of the rat (chronic ischemic); assay: Effect on the contractility of the skeletal muscle after chronic ischemia (tiring index); format: in vivo, rat (male Wistar); conditions: for TI of ischemic treated muscle: tiring index = maximum contractility / residual force after 5 min stimulation; for change in vivo at 6 mg/kg: Rattus norvegicus, po, 168 h, read-out: Percentage change (TI of ischemic treated muscle vs TI of normal non-treated muscle)
Description: 1) Effect on the Contractility of the Skeletal Muscle After Chronic Ischemia
In recent years, a marked change has taken place in ideas about the pathophysiology of chronic peripheral arterial occlusive disease as scientific interest has to an increasing extent shifted from the macrocirculation to the microcirculation. Disturbances in the microcirculation therefore manifest themselves in an undersupply of substrates with tissue ischemia resulting therefrom which, in turn, leads to an impairment in the function of the extremity concerned. The logical consequence of this is that the target organ skeletal muscle comes more and more into the forefront. […] The clinical activity is in fact also consistently determined in humans with the aid of the painless walking distance on the moving walkway.
Male Wistar rats having a body weight of 380 to 410 g were used as experimental animals. Under hexobarbital anesthesia (®Evipan--sodium, 200 mg/kg BW (=body weight) i.p.), a unilateral ligature of the right femoral artery was applied to the animals in the groin. After sprinkling penicillin sulfonamide powder for antibiotic wound care, the small operation wound was closed and the animals were continuously observed until they were completely awake. One week later, the administration of substance began by oral administration using a stomach tube (6 mg/kg BW, carboxymethylcellulose-sodium suspension) and was continued for 7 days (single administration per day, about 7h30 to 8h30). The contractility was measured 24 h after the last administration of substance in order to exclude acute effects, to be precise by the following experimental protocol:
Superfusion with physiological saline solution (37° C.) was used to avoid drying out and cooling. The mean arterial blood pressure was recorded continuously via Statham (=blood pressure measuring device) by means of a cannulated caroted artery to control the physiological status of the animals during the experiment. All animals breathed spontaneously by means of an inserted tracheal tube.
After these preparations, the muscle was made to contract (Stimulator I, Hugo Sachs, Federal Republic of Germany) by direct electrical stimulation (2.5 mA, 2 Hz). The absolute contractility in grams at various times of stimulation was used as the measured parameter. […] If the maximum contractility at the start of stimulation is now divided by the residual force remaining after 5 minutes' tiring stimulation, a "tiring index TI" for the muscle concerned can be calculated; the ability to tire here is larger the larger TI is numerically.
4 to 6 individual experiments were carried out for each test preparation.

[2] = test system: laser-induced thrombosis in mesenterial arterioles; assay: Inhibition of laser-induced thrombosis in mesenterial arterioles of the rat; format: in vivo, rat (female Sprague-Dawley); conditions: for inhibition in vivo at 10 mg/kg / inhibition in vivo at 20 mg/kg: Rattus norvegicus, po, read-out: Percentage change vs control (inhibition of laser-induced thrombosis); for inhibition in vivo at 10 mg/kg: 10 mg/kg p.o.
[3] = Acute toxicity (LD50 range); conditions: mouse, in vivo, single administration, NMRI mice, 7 days
Protocol: The determination of the LD50 ranges was carried out in standard fashion by means of the mortality occurring in the course of 7 days in NMRI mice after single intravenous (i.v.) or intraperitoneal (i.p.) administration (NMRI=NIH Medical Research Institute).

[4] = 6 mg/kg p.o. over 7 days, n = 4-6
[5] = 6 mg/kg p.o. over 7 days, n = 4-6, smaller value = more effective

| Compound | TI of ischemic treated muscle [1, 4] | change in vivo at 6 mg/kg [1, 5] | other results |
| --- | --- | --- | --- |
| Cn1cnc(S(=O)(=O)N2CCN(c3ccc(O)cc3)CC2)c1 [Example 25] | 2.11 | 6.6% | inhibition in vivo at 10 mg/kg [2]: 22%; LD50 at 168 h ([3]; ip): > 300 mg/kg |
| CCCCN(CCCN1CCOCC1)S(=O)(=O)c1cn(C)cn1.Cl [Example 15, N-butyl-N-(3-morpholino-1-propyl)-1-methyl-4-imidazolesulfonamide hydrochloride] | 1.96 | 10.9% | – |
| Cl.Cn1ccnc1S(=O)(=O)NCCCN1CCOCC1 [Example 29, N-(3-Morpholinopropyl)-1-methyl-2-imidazolesulfonamide hydrochloride] | 2.74 | 38.4% | inhibition in vivo at 10 mg/kg [2]: 21%; LD50 at 168 h ([3]; iv): > 100 mg/kg |
| Cn1cnc(S(=O)(=O)NCCCCCCNS(=O)(=O)c2cn(C)cn2)c1 [Example 54, 1,6-Bis(1-methyl-4-imidazolesulfonamido)hexane] | 2.55 | 37.8% | inhibition in vivo at 10 mg/kg [2]: 17%; LD50 at 168 h ([3]; ip): > 1200 mg/kg |
| Cl.Cn1cnc(S(=O)(=O)NCCCN2CCSCC2)c1 [Example 13, N-(3-thiomorpholinopropyl)-1-methyl-4-imidazolesulfonamide hydrochloride] | 2.95 | -10.1% | inhibition in vivo at 20 mg/kg ([2]; 20 mg/kg p.o.): 14% |
| 1-[3-(1-methyl-5-imidazolesulfonyl)-aminopropyl]-2-pyrrolidinone [Example 43] | 2.29 | – | Percentage change (TI of ischemic treated muscle vs TI of normal non-treated muscle) [1, 5]: +29.4%; Percentage change vs control (inhibition of laser-induced thrombosis) ([2]; 20 mg/kg p.o.): 15% |
| Cn1cnc(S(=O)(=O)N2CCS(=O)(=O)CC2)c1 [Example 57, 4-(1-Methyl-4-imidazolesulfonyl)tetrahydro-4H-1,4-thiazine-1,1-dioxide] | – | – | inhibition in vivo at 10 mg/kg [2]: 19% |
| Cn1cnc(S(=O)(=O)NCCCCN2CCC3(CC2)OCCO3)c1 [Example 19, hydrochloride] | 2.20 | – | change in vivo at 6 mg/kg [1]: 11.1% |
| CC(CNS(=O)(=O)c1cn(C)cn1)CN1CCOCC1.Cl (stereo not drawn) [Example 12, N-(3-morpholino-2-methyl-1-propyl)-1-methyl-4-imidazolesulfonamide hydrochloride] | – | – | inhibition in vivo at 20 mg/kg ([2]; 20 mg/kg p.o.): 24%; LD50 at 168 h ([3]; iv): > 100 mg/kg |
| CCOC(=O)COc1ccc(N2CCN(S(=O)(=O)c3ncn(C)c3Cl)CC2)cc1 [Example 58, Ethyl 4-[4-(5-chloro-1-methyl-4-imidazolesulfonyl)piperazinyl]phenoxyacetate] | 2.07 | -1.9% | – |
| CCn1cnc(S(=O)(=O)NCCCN2CCOCC2)c1 [Example 37, N-(3-Morpholinopropyl)-1-ethyl-4-imidazolesulfonamide hydrogenfumarate] | 2.09 | -7.9% | – |
| Cn1cnc(S(=O)(=O)NCCC[N+]2(C)CCOCC2)c1 [Example 56, 4-Methyl-4-[3-(1-methyl-4-imidazolesulfamoyl)-1-propyl]morpholinium iodide] | – | – | inhibition in vivo at 10 mg/kg [2]: 24%; LD50 at 168 h ([3]; iv): > 100 mg/kg |
| Cn1cnc(S(=O)(=O)O)c1 [Example 3, 1-Methyl-4-imidazolesulfonic acid] | 2.26 | 7.1% | inhibition in vivo at 20 mg/kg ([2]; 20 mg/kg p.o.): 23% |
| CC1CCCCN1CCCNS(=O)(=O)c1cn(C)cn1.Cl (stereo not drawn) [Example 17, N-[3-(2-methylpiperidino)-propyl]-1-methyl-4-imidazolesulfonamide hydrochloride] | 2.04 | -14.3% | – |
| Cl.Cn1cnc(S(=O)(=O)NCCCCCN2CCOCC2)c1 [Example 11, N-(5-morpholinopentyl)-1-methyl-4-imidazolesulfonamide hydrochloride] | 2.52 | 22.9% | – |
| CN1CCCC1CCNS(=O)(=O)c1cn(C)cn1.Cl (stereo not drawn) [Example 21, N-[2-(1-methyl-2-pyrrolidinyl)-ethyl]-1-methyl-4-imidazolesulfonamide hydrochloride] | 2.34 | 19.4% | inhibition in vivo at 20 mg/kg ([2]; 20 mg/kg p.o.): 24% |
| Cl.Cn1cnc(S(=O)(=O)NCCCN2CCN(Cc3ccccc3)CC2)c1 [Example 26, N-[3-(4-benzyl-1-piperazinyl)-propyl]-1-methyl-4-imidazolesulfonamide hydrochloride] | 2.49 | 25.7% | inhibition in vivo at 10 mg/kg [2]: 24% |
| Cn1cnc(S(=O)(=O)NCCN2CCOCC2)c1 [Example 9, N-(2-morpholinoethyl)-1-methyl-4-imidazolesulfonamide] | 2.47 | 10.3% | – |
| Cl.Cn1cnc(S(=O)(=O)NCCN2CCCC2)c1 [Example 20, N-(2-pyrrolidinoethyl)-1-methyl-4-imidazolesulfonamide hydrochloride] | 2.56 | 23.1% | – |
| Cn1cnc(S(=O)(=O)Oc2ccc(N3CCN(S(=O)(=O)c4ncn(C)c4Cl)CC3)cc2)c1Cl [Example 41, 1-(1-Methyl-5-chloro-4-imidazolesulfonyl)4-[4-(1-methyl-5-chloro-4-imidazolesulfonyloxy)phenyl]piperazine] | 2.18 | 18.5% | – |
| Cn1cnc(S(=O)(=O)NCCc2ccc(OCC(=O)O)cc2)c1 [Example 51, 4-[2-(1-Methyl-4-imidazolesulfonyl)aminoethyl]phenoxyacetic acid] | 2.92 | 23.7% | – |
| CN(CCCNS(=O)(=O)c1cn(C)cn1)Cc1ccccc1 [Example 28, N-[3-(N-Benzyl-N-methylamino)-1-propyl]-1-methyl-4-imidazolesulfonamide hydrogenfumarate] | 2.27 | 14.6% | – |
| Cn1cnc(S(=O)(=O)NCCCCCCNS(=O)(=O)c2ncn(C)c2Cl)c1Cl [Example 47, 1,6-bis(5-chloro-1-methyl-4-imidazolesulfonamido)hexane] | 2.46 | 6% | – |
| COCCN(CCCNS(=O)(=O)c1cn(C)cn1)CCOC [Example 23] | 2.18 | 23.1% | – |
| Cc1nc(S(=O)(=O)NCCCN2CCOCC2)cn1C.Cl [Example 33, N-(3-Morpholinopropyl)-1,2-dimethyl-4-imidazolesulfonamide hydrochloride] | 2.30 | 12.2% | inhibition in vivo at 10 mg/kg [2]: 18% |
| Cn1cnc(S(=O)(=O)NC(CN2CCOCC2)CN2CCOCC2)c1 [Example 38, N-(1,3-Dimorpholino-2-propyl)-1-methyl-4-imidazolesulfonamide] | 2.18 | 10.1% | inhibition in vivo at 10 mg/kg [2]: 21% |
| Cn1cnc(S(=O)(=O)NCCc2ccc(OCC(=O)O)cc2)c1Cl [Example 52, 4-[2-(5-Chloro-1-methyl-4-imidazolesulfonyl)aminoethyl]phenoxyacetic acid] | 2.16 | 17.4% | – |
| Cn1cnc(S(=O)(=O)NCCc2ccc(O)cc2)c1 [Example 45, N-(4-hydroxyphenethyl)-1-methyl-4-imidazolesulfonamide] | 2.14 | 16.3% | – |
| Cn1cnc(S(=O)(=O)N2CCSCC2)c1 [Example 42, 4-(1-Methyl-4-imidazolesulfonyl)tetrahydro-4H-1,4-thiazine] | 2.84 | 24.6% | – |
| CNCCCNS(=O)(=O)c1cn(C)cn1.Cl [Example 62, N-(3-Methylamino-1-propyl)-1-methyl-4-imidazolesulfonamide hydrochloride] | 2.5 | 27.8% | – |
